Experimental findings from patent US9499811B2, “Ligation enhancement” (New England Biolabs, Inc., priority 2011, dated 2016) are described below.

Holding throughout (format): biochemical
What all share (set-up): purchased NEB (New England Biolabs), Ipswich, Mass. #M0202

Test [1] concerns the target T1, T4 DNA ligase (Enterobacteria phage T4, UniProt P00970).
T1 sequence (P00970 1-487): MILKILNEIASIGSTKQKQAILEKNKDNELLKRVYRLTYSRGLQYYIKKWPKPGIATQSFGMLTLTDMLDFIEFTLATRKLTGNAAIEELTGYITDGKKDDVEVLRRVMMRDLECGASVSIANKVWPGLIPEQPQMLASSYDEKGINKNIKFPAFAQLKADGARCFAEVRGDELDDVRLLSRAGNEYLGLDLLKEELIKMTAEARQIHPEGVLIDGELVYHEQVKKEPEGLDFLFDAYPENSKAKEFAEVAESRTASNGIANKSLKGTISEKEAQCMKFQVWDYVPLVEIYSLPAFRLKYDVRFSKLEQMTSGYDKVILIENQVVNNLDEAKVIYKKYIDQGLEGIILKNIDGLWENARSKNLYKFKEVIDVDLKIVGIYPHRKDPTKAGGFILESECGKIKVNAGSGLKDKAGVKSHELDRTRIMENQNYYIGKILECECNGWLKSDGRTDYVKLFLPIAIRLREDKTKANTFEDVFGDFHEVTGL
Put plainly: Cloning of a 500 bp amplicon made by Taq DNA polymerase into a T-tailed vector (ligation test system a). As to conditions: enhancer at 12%; no addition = 1-fold; single-base overhangs. Here is the method:
(§1) All were tested side-by-side using two ligation test systems which were: (a) cloning of a 500 bp amplicon made by Taq DNA polymerase into a T-tailed vector; and (b) recircularization of an AhdI-linearized plasmid. Both ligation test systems used DNA with single-base overhangs.
(§2) The reaction mixtures contained DNA at 50-100 ng and 1,2-PrD at different concentrations. 1 μl of regular concentration (NEB, Ipswich, Mass., #M0202; 400 units) or 1 μl of high concentration T4 DNA ligase (NEB, Ipswich, Mass., #M0202; 2000 units) was then added to a final volume of 21 μl in 1×T4 DNA Ligase Buffer (NEB, Ipwich, Mass., #B0202) or 1× Quick Ligase™ Buffer (NEB, Ipswich, Mass., #B2200).
(§3) A standard assay uses 100 ng DNA, 1 μl of T4 DNA ligase, 21 μl 1×T4 DNA ligase buffer and varying amounts of enhancer.
(§4) Ligation reactions were incubated for 10 min at room temperature (25° C.) unless otherwise stated, then placed on ice for 2 min. In some experiments the ligase was heat-killed by incubation at 65° C. for 20 min. The ligation reactions were analyzed by 1% agarose gel electrophoresis to identify DNA species and determine the efficiency of […].
(§5) A volume of 2 μl from each ligation reaction was incubated with 50 μl of chemically competent (NEB, Ipswich, Mass., #C2987I) or electrocompetent (NEB, Ipswich, Mass., #C2989K) DH5 alpha E. coli cells.
(§6) For chemically competent cell transformations, the cell-DNA mixture was incubated on ice for 30 min, heat-shocked at 42° C. for 30 sec, then returned to ice for 5 min. A volume of 950 μl SOC medium (2% vegetable peptone or Tryptone, 0.5% yeast extract, 10 mM NaCl, 2.5 mM KCl, 10 mM MgCl2, 10 mM MgSO4 and 20 mM glucose) was added to the cell-DNA mixture, followed by a one hr 37° C. outgrowth period with agitation. A volume of 25-50 μl of appropriately diluted cells in SOC was spread onto Rich Agar plates (composition per liter: 10 g soy peptone, 5 g yeast extract, 10 g NaCl, 1 g MgCl2-6H2O, 1 g dextrose, 15 grams agar) supplemented with 100 μg/ml ampicillin. Plates were inverted and incubated for 16 hrs at 37° C., followed by quantification of total colony numbers.

Test [2] deals with T1, T4 DNA ligase. Kind of test: Cloning of inserts with single-base 3'A overhangs into Qiagen cloning vector, ligation and subsequent transformation. As to conditions: 6% 1,2-PrD. How it is done: This test used a commercially available cloning vector from Qiagen, Valencia, Calif. (#231124) specifically designed to clone DNA fragments with single-base 3′A overhangs.
as §2, §4, §5, §6
For electrocompetent cell transformation protocols, the cell-DNA mixture was subjected to electroporation, immediately followed by the addition of 950 μl of pre-warmed 37° C. SOC medium, followed by a one hour 37° C. outgrowth period with agitation. Dilution, plating, incubation and colony quantification were performed as described in Example 1A above.

Test [3] concerns the target T1, T4 DNA ligase. As to conditions: enhancer at 12%; no addition = 1-fold; single-base overhangs. Here is the method: as §1, §2, §3, §4, §5, §6
Setting [4] is: insert 68mer cassette featuring No 5' PO4, 3' A overhang.
[5] abbreviates: insert 513 pb human genomic amplicon using Taq DNA polymerase.

As to `CC(O)CO` (stereo not shown) [1,2-PrD, 1,2-propanediol], on T4 DNA ligase [1], the “Cloning Enhancement” value is 14-fold. At T4 DNA ligase [2] (setting [4]), the “Cloning Enhancement (chemical transformation)” value was 14-fold and the “Cloning Enhancement (electroporation)” value is listed as 2-fold. In addition, at T4 DNA ligase [2] (setting [5]), the “Cloning Enhancement (chemical transformation)” value was “At least 72-fold” and the “Cloning Enhancement (electroporation)” value is reported as 11-fold. Further, the “Colonies (chemical transformation)” value on T4 DNA ligase [2] (insert 513 pb human genomic amplicon, 0 colonies without enhancer) was found to be 72 colonies). At T4 DNA ligase [3], the “Recircularization Enhancement” value is given as 11-fold.
